Counter-ions that a name gives are not always drawn.
Tests used:
MRSA strain LAC biofilms = assay: MRSA biofilm assay with antibiotics plus PCCA and ultrasound (US-PCCA), survivors enumerated by plating; assay type: cell-based, S. aureus; conditions: for enhancement of tobramycin efficacy in the presence of PCCAs / increase in killing of biofilm-associated cells by US-PCCA: 30 s ultrasound; for enhancement of tobramycin efficacy in the presence of PCCAs: 20% duty cycle, FIG. 2B; for increase in killing of biofilm-associated cells by US-PCCA: vs antibiotic alone, 10% duty cycle, FIG. 2C
Procedure: Next, we tested the ability of 30 second (s) US-PCCA treatment to potentiate tobramycin efficacy. […] We hypothesized that US-PCCA might improve tobramycin penetration into biofilms and increase its efficacy. Mature biofilms were washed and transferred to a custom-built temperature-controlled 37° C. water bath alignment setup (FIG. 1B). Tobramycin and PCCAs were added and ultrasound applied at a range of rarefactional pressures (300-1200 kPa).
(§1) MRSA strain LAC biofilms were cultured overnight in brain-heart infusion (BHI) media in 12-well (FIGS. 2A and 2B) or 24-well (FIG. 2C) tissue culture treated plates. Biofilms were washed and treated with antibiotics. Where indicated, plates were transferred to a custom-built temperature-controlled 37° C. water bath alignment setup. PCCA were added and 30 s ultrasound exposure was applied at indicated pressures and 20% duty cycle (FIG. 2B) or 10% duty cycle (FIG. 2C). After 24 hours, biofilms were washed, sonicated for disruption and surviving cells were enumerated by serial dilution plating. Survivors were presented as log10 CFU/ml. The averages of n=3 biologically independent samples are shown. The error bars represent the standard deviation. Statistical significance was determined using a one-way analysis of variance (ANOVA) with Dunnett's (FIG. 2A) or Sidak's multiple comparison test (FIGS. 2B and 2C). **, ***, **** denotes P<0.005, P<0.0005, P<0.0001, respectively. LEV, levofloxacin; GENT, gentamicin; TOB, tobramycin; MUP, mupirocin; VAN, vancomycin; LIN, linezolid, RIF, 10 μg/ml rifampicin; ns, not significant; US-PCCA, ultrasound-stimulated phase change contrast agents.
MRSA strain LAC biofilms were cultured overnight in brain-heart infusion (BHI) media in 24-well tissue culture treated plates. Biofilms were washed and treated with antibiotics and transferred to a custom-built temperature-controlled 37° C. water bath alignment setup. PCCAs were added and 30 s ultrasound exposure was applied at 300 kPa or 600 kPa (FIG. 3B and 3C) and 10% duty cycle. After 24 h, biofilms were washed, sonicated for disruption and surviving cells were enumerated by serial dilution plating (FIG. 3A) or stained with crystal violet (FIG. 3B). The averages of n=6 biologically independent samples are shown. The error bars represent the standard deviation. Statistical significance was determined using a one-way analysis of variance (ANOVA) with Dunnett's multiple comparison test (a) or multiple unpaired t-test (2-tailed) (FIG. 3C). *, **, **** denotes P<0.05, P<0.005, P<0.0001, respectively. TOB, 58 μg/ml tobramycin; RL, 30 μg/ml rhamnolipids; DAP, 100 μg/ml daptomycin; LIN, 15 μg/ml linezolid; RIF, 10 μg/ml rifampicin; ADEP, 5 μg/ml acyldepsipeptide; ns, not significant; US-PCCA, ultrasound-stimulated phase change contrast agents.
Biofilm assays were performed using the USA300 MRSA strain LAC. It is a highly characterized community-acquired MRSA (CA-MRSA) strain isolated in 2002 from an abscess of an inmate in Los Angeles County jail in California^67. LAC was cultured overnight (18 h) in brain heart infusion (BHI) media (Oxoid) in biological triplicates.

[1] = tested on: MRSA biofilms (USA300 LAC); assay: MRSA biofilm assay, antibiotics alone, survivors enumerated by plating; assay type: cell-based, S. aureus; conditions: antibiotic alone at clinically achievable concentration (Cmax), 24 hours of drug treatment of mature biofilm, FIG. 2A
Procedure: Antibiotics were chosen based on clinical relevance or previously reported anti-biofilm efficacy in vitro. Mature MRSA biofilms (USA300 LAC) were cultured for 24 hours in tissue culture treated plates before the addition of antibiotics. Following 24 hours of drug treatment, biofilms were washed, and survivors were enumerated by plating.
as §1
Biofilm assays were performed using the USA300 MRSA strain LAC. It is a highly characterized community-acquired MRSA (CA-MRSA) strain isolated in 2002 from an abscess of an inmate in Los Angeles County jail in California^67. LAC was cultured overnight (18 h) in brain heart infusion (BHI) media (Oxoid) in biological triplicates. Each culture was diluted 1:150 in fresh media and 2 or 3 ml was added to the wells of 24-well or 12-well tissue culture treated plates (Costar), respectively. Biofilms were covered with Breathe-Easier sealing strips (Sigma) and incubated at 37° C. for 24 h. Biofilms were carefully washed twice with PBS and fresh BHI media containing antibiotics was added. Biofilms were covered and incubated at 37° C. for 24 h. Biofilms were carefully washed twice with PBS before dispersal in a sonicating water bath (5 min) and vigorous pipetting. Surviving cells were enumerated by serial dilution and plating. […] For daptomycin activity, the media was supplemented with 50 mg/L of Ca^2+ ions. Where indicated tobramycin was supplemented with 30 μg/ml rhamnolipids^22 (50/50 mix of mono- and di-rhamnolipids, Sigma). Where indicated biofilms were treated with PCCA and ultrasound. For crystal violet staining, biofilms were carefully washed twice with PBS, and dried in a 65° C. oven for 1 h. Biofilms were stained with 1 ml 0.4% crystal violet for 5 min, and washed 3× with PBS. Wells were photographed, and stain was solubilized with 2 ml 5% acetic acid and absorbance measured at 570 nm.

Molecule | reduction in surviving biofilm cells [1] | other results
CCCCCC/C=C\CCCCCCCC(=O)O [Palmitoleic acid, palmitoleic acid] | – | vancomycin killing of biofilms (MRSA strain LAC biofilms; 50 μg/ml vancomycin, 30 μg/ml palmitoleic acid, with US-PCCA (30 s, 1 MHz, 600 kPa, 10% duty cycle), FIG. 12): drastically improves vancomycin killing
NC[C@H]1O[C@H](O[C@H]2[C@H](O)[C@@H](O[C@H]3O[C@H](CO)[C@@H](O)[C@H](N)[C@H]3O)[C@H](N)C[C@@H]2N)[C@H](N)C[C@@H]1O [Tobramycin, tobramycin] | significant reduction | enhancement of tobramycin efficacy in the presence of PCCAs (MRSA strain LAC biofilms; 300 kPa): significantly enhanced; enhancement of tobramycin efficacy in the presence of PCCAs (MRSA strain LAC biofilms; 600 kPa): significantly enhanced; enhancement of tobramycin efficacy in the presence of PCCAs (MRSA strain LAC biofilms; 1200 kPa): significantly enhanced
C[C@H]1COc2c(N3CCN(C)CC3)c(F)cc3c(=O)c(C(=O)O)cn1c23 [levofloxacin] | no efficacy | –
CC(=O)NC[C@H]1CN(c2ccc(N3CCOCC3)c(F)c2)C(=O)O1 [linezolid] | significant reduction | –
C/C(=C\C(=O)OCCCCCCCCC(=O)O)C[C@@H]1OC[C@H](C[C@@H]2O[C@H]2[C@@H](C)[C@H](C)O)[C@@H](O)[C@H]1O [mupirocin] | significant reduction | increase in killing of biofilm-associated cells by US-PCCA (MRSA strain LAC biofilms): 41%
CN[C@H](CC(C)C)C(=O)N[C@H]1C(=O)N[C@@H](CC(N)=O)C(=O)N[C@H]2C(=O)N[C@H]3C(=O)N[C@H](C(=O)N[C@H](C(=O)O)c4cc(O)cc(O)c4-c4cc3ccc4O)[C@H](O)c3ccc(c(Cl)c3)Oc3cc2cc(c3O[C@@H]2O[C@H](CO)[C@@H](O)[C@H](O)[C@H]2O[C@H]2C[C@](C)(N)[C@H](O)[C@H](C)O2)Oc2ccc(cc2Cl)[C@H]1O [vancomycin, vancomycin hydrochloride] | significant reduction | increase in killing of biofilm-associated cells by US-PCCA (MRSA strain LAC biofilms): 93%
gentamicin | no efficacy | –
